In assay [1] the target is T1, CD38 (Homo sapiens, UniProt P28907).
T1 construct: host or cells: recombinant hCD38, cells and mouse tissues
T1 sequence (P28907 43-300): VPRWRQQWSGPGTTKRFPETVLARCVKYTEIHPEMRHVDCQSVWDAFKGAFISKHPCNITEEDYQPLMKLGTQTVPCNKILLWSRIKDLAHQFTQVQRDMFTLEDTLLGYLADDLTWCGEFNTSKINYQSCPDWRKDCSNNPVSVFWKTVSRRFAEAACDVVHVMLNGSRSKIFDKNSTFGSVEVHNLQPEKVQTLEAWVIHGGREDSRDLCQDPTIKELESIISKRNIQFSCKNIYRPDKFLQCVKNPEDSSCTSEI
The experiment in a line: Hydrolase and cyclase activities of human and murine CD38. The format is biochemical. As to the method: The hydrolase activity of CD38 was measured according to a previous report ([de Oliveira et al., 2018]) with minor modifications. CD38 hydrolase activity was measured using 50 μM ε-NAD^+ as a substrate in hydrolase reaction buffer (250 mM sucrose, 40 mM Tris-HCl, pH 7.4). Briefly, cells or tissues were directly homogenized in blank reaction buffer on ice, and recombinant hCD38 was diluted in blank reaction buffer for subsequent assays. The tissue homogenates were centrifuged to collect the supernatant for enzyme assays. The loading volume of enzyme was 4–30 μL, the total volume of the reaction system was 3 mL. To detect enzyme inhibition, except when specified, the ligands were directly dissolved in hydrolase reaction buffer before pH adjustment, after which, the pH was immediately adjusted to 7.4. All reaction buffers, with or without ligands, were freshly prepared before each assay. For measurement of hydrolase activity, 3 mL reaction buffer containing enzyme, ε-NAD^+, and ligands at indicated concentrations was maintained at 37°C with constant stirring.
The cyclase activity of CD38 was measured as previously described ([Higashida et al., 1999]; [Jin et al., 2007]). CD38 cyclase activity was measured using 60 μM NGD as a substrate in cyclase reaction buffer (100 mM KCl, 10 μM CaCl2, and 50 mM Tris-HCl, pH 6.6). Tissues were cut into pieces and suspended in the buffer (5 mM MgCl2, 10 mM Tris-HCl, pH 7.3) at 4°C for 30 min. Then, the suspension was homogenized on ice, and the supernatant was collected after centrifugation. To collect the crude membrane fractions, the supernatant was centrifuged at 105,000×g for 30 min. The final pellet was resuspended in 10 mM Tris-HCl solution (pH 6.6) for cyclase assay. Homogenates of THP-1 or A549 cells, and recombinant hCD38 were used directly for cyclase assays. The loading volume of enzyme was 4–20 μL, the total volume of reaction system was 3 mL. To detect enzyme inhibition, except when specified, the ligands were directly dissolved in cyclase reaction buffer before pH adjustment, after which, the pH was immediately adjusted to 6.6. All reaction buffers, with or without ligands, were freshly prepared before each assay. For measurement of cyclase activity, 3 mL reaction buffer containing enzyme, NGD, and ligands at indicated concentrations was maintained at 37°C with constant stirring.
The reaction buffer for hydrolase or cyclase assays was excited at 300 nm, and fluorescence emission was measured every second at 410 nm by Shimazu RF-6000 spectrofluorometer. Hydrolase or cyclase activity was calculated from the linear portion of the time course by fitting a linear function to the data points recorded within 5 min.
Guanosine was dissolved in DMSO and diluted in the reaction buffer for subsequent assays.
For reversibility test, recombinant hCD38 was pre-incubated for 30 min in four conditions: (1) control reaction buffer; (2) in the presence of 100 μM substrate (ε-NAD^+ or NGD); (3) 500 μM sUA; (4) both substrate and sUA. Subsequently, the enzyme was diluted 100-fold in reaction buffer in the presence or absence of 500 μM sUA for activity assays using ε-NAD^+ or NGD. Naïve THP-1 and A549 cells were incubated with RPMI-1640 medium in the presence or absence of 500 μM sUA for 2 hr. The cells were collected and homogenized in the reaction buffer on ice with or without 500 μM sUA, samples were then diluted 100-fold in reaction buffer with or without 500 μM sUA for enzyme assay. Control group was not treated with sUA in all steps; sUA group was treated with sUA in each step; sUA release group was treated with sUA prior to dilution in sUA-free buffer for enzyme assays.

Assay [2] deals with T2, nicotinamide phosphoribosyltransferase (NAMPT) (Homo sapiens, UniProt P43490).
T2 construct: purchased MBL CY-1251V2
T2 sequence (P43490 whole entry): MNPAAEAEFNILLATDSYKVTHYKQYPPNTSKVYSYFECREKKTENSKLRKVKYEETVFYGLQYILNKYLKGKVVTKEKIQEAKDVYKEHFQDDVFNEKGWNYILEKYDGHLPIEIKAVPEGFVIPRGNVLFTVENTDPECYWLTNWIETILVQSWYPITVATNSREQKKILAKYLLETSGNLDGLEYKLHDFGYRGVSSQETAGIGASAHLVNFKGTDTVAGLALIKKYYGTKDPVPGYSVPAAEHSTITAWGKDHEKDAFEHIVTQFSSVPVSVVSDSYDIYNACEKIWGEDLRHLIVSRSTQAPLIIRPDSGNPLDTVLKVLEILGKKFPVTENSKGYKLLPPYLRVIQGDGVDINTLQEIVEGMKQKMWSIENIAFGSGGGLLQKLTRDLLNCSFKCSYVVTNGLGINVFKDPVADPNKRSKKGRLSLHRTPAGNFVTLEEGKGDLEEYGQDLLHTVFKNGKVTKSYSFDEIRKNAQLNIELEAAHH
The experiment in a line: NAMPT activity (colorimetric kit). The format is biochemical. Particulars: Figure 3—figure supplement 2A. As to the method:
The activities of NAMPT and PARP were measured using commercial kits, HT Universal Colorimetric PARP Assay Kit, and CycLex NAMPT Colorimetric Assay Kit Ver.2. The solutions of ligands were freshly prepared (pH was adjusted to 7.4) and were immediately used for enzyme assays.

Assay [3] has as its system bone marrow-derived macrophages (BMDMs). In words: Extracellular NMN degradation in primed BMDMs. The format is cell-based, mouse. To be noted: WT BMDMs, not in CD38 KO BMDMs; NMN 100 μM, 6 hr. Here is the method:
Bone marrow cells were isolated from 10- to 12-week-old WT or CD38 KO mice (both male and female) by washing the marrow cavity with sterile PBS. The collected bone marrow cells were filtered by 70 μm strainers and then centrifuged at 1000 rpm, 4°C for 5 min. The cell pellet was resuspended in 2 mL red blood cell (RBC) lysis buffer for 30 s, then 8 mL complete RPMI-1640 medium (10% FBS, 1% penicillin/streptomycin, and 50 μM 2-mercaptoethanol) was added to terminate the lysis. After 5 min centrifugation at 1000 rpm, 4°C, the cells were resuspended in fresh complete RPMI-1640 medium and maintained for 4 hr in an incubator. Adherent cells were discarded, whereas non-adherent cells were cultured in complete RPMI-1640 medium containing 20 ng/mL M-CSF. After 3-day differentiation, the medium was replaced with fresh complete RPMI-1640 medium containing 20 ng/mL M-CSF. On the 7th day, BMDMs were collected for subsequent experiments. BMDMs were primed with 100 ng/mL ultrapure LPS for 4 hr for canonical inflammasome assay. For metabolic assay of NMN, BMDMs were primed with 100 ng/mL ultrapure LPS for 8 hr to induce higher protein expression of CD38.
WT and CD38 KO BMDMs were primed with 100 ng/mL ultrapure LPS for 8 hr, then the cells were washed twice with sterile PBS. Primed BMDMs were maintained in RPMI-1640 medium supplemented with 100 μM NMN in the presence or absence of sUA. […]

As to `O=c1[nH]c(=O)c2[nH]c(=O)[nH]c2[nH]1` [sUA, uric acid], in assay [1] (30 min pre-incubation with 500 μM sUA, 100-fold dilution, hCD38, A549, THP-1), the “Reversibility of the inhibitory effects on CD38” value is listed as “reversible”. Moreover, the “Mode of inhibition of CD38” value in assay [1] (different substrate concentrations, Figure 1C, D) was “non-competitive inhibitor”. The “Effect on NAMPT activity” value in assay [2] is given as “without affecting the activities”. The “Extracellular NMN availability” value in assay [3] is given as “increased extracellular NMN availability”.

The values are drawn from paper PMC11554305, “Functional identification of soluble uric acid as an endogenous inhibitor of CD38” (eLife, 2024).
